# Laboratory results reported in patent US9511072B2, “Methods of modulating cell proliferation and cyst formation in polycystic kidney and liver diseases” (The Medical College of Wisconsin, Inc., priority 2006, dated 2016).
# Where “and” joins values, the source holds several entries; their conditions need not be identical. Identical values can stand only once. Entries after “also recorded” stand apart in the source; their conditions may differ.
# Key:
# [1] = tested on: PCK rats; assay: Chronic HET0016 treatment of PCK rats (KW/BW, LW/BW, morphology); type: in vivo, rat
# Protocol: PCK rats, an orthologous model of human ARPKD (PKHD1), received daily IP injections of vehicle or HET0016 at 10 mg/kg/daily, starting at postnatal day 7 (PN-7). Animals were treated daily from PN-7 to PN-55 (48 doses). Kidney and liver were harvested at PN-55.
# [2] = tested on: 20-HETE; conditions: cited from earlier work
# [3] = tested on: BPK mice; assay: Chronic HET-0016 treatment of cystic BPK mice (kidney mass, cysts); type: in vivo, mouse
# Protocol: This study was conducted using “immortalized” BPK mice as previous described by Sweeney W E et al. (Am J Physiol Cell Physiol, 281:C1695-705, 2001). In brief, BPK female heterozygotes (bpk^+/−) were bred with H-2k^b-ts-A58 transgenic males. Compound heterozygotes (bpk^+/−; H-2K^b-ts-A58^+/−) were identified by PCR and backcrossing to produce cystic offspring. Compound heterozygotes were mated to generate cystic (bpk^−/−; H-2K^b-ts-A58^+/±) and non-cystic (bpk^+/−; H-2K^b-ts-A58^+/±) offspring carrying at least one copy of the Immorto transgene (bpk^−/−; H-2K^b-ts-A58^+/±). All of the mice were genotyped for the H-2K^b-ts-A58 transgene by PCR analysis of DNA extracts from tail sections as described in Takacs-Jarrett M et al. Am J Physiol, 275:F802-11, 1998.
# Kidney and liver tissues were harvested for qualitative analysis as described in Sweeney W E et al. (Kidney Int, 57:33-40, 2000) at postnatal day 21. Briefly, kidney and liver were fixed in 4.0% paraformaldehyde in phosphate buffer (pH 7.4) for 30 min at 4° C. Tissues were then washed, dehydrated through a graded series of acetone, and fixed in Immunobed embedding medium (Polysciences, Warrington, Pa.). Sections were cut at 4 μm, mounted on glass slides, and stained with hematoxylin or lectins staining the proximal tubule [Lotus tetragonobulus agglutinin (LTA)] and collecting tubule [Dolichol biflorus agglutinin (DBA)]. Segmental nephron cyst localization was characterized by light microscopy, and cystic lesions were quantitated by a morphometric index as described in Nakanishi K et al. (J Am Soc Nephrol, 12:719-25, 2001), Richards W G et al. (J Clin Invest, 101:935-9, 1998), Sweeney W E et al. (Kidney Int, 57:33-40, 2000), and Sweeney W E et al. (Kidney Int, 64:1310-9, 2003).
# We administered HET-0016 (10 mg/kg/day), a specific 20-HETE synthesis inhibitor, intraperitoneally on a daily basis from post-natal day 7 to post-natal day 20. On day 21, the mice were sacrificed and the kidneys analyzed. […] Chronic blockade of 20-HETE synthesis lowered the KW/BW ratio to 9.4 in the HET-0016 treated BPK mice (Table 3).
# [4] = 10 mg/kg/daily IP, PN-7 to PN-55
# [5] = 10 mg/kg/day IP, PN-7 to PN-55, 10 mg/kg/day
# [6] = BPK (−/−), 10 mg/kg/day i.p., post-natal day 7-20, day 21
substance,measurement,setting,value
N-hydroxy-N-(4-butyl-2-methylphenyl)-formamidine [HET0016],BW,[1]; [4],93
same,KW (% BW),[1]; [4],0.97 % BW
same,LW (% BW),[1]; [4],4.3 % BW
same,decrease in KW/BW ratio,"[1]; 10 mg/kg/daily IP, vs vehicle",23%
same,decrease in LW/BW ratio,"[1]; 10 mg/kg/daily IP, vs vehicle",25%
same,decrease in total body weight,"[1]; 10 mg/kg/daily IP, vs vehicle",14%
same,kidney morphology: cysts and tubular epithelial proliferation,[1]; [5],dramatic reduction in size and number of cysts and tubular epithelial proliferation; also recorded: dramatic reduction in cyst size and tubular epithelial proliferation
same,liver morphology: biliary cysts and biliary epithelial proliferation,[1]; [5],dramatic reduction in size and number of cysts and reduced biliary epithelial proliferation; also recorded: dramatic reduction in the size and number of biliary cysts and in the proliferation of biliary epithelial cells
same,20-HETE levels in vivo,[2],reduce 20-HETE levels in vivo
same,Body weight,[3]; [6],10.3 ± 1.0^¥ g
same,Kidney Weight,[3]; [6],0.97 ± 0.32 g
same,KW/BW,"[3]; BPK (−/−), 10 mg/kg/day i.p., post-natal day 7-20, day 21, 10 mg/kg/day",9.4% and 9.4 ± 3.3 %
same,kidney size,"[3]; BPK mice, 10 mg/kg/day chronic daily, vehicle 1.08 g",0.43 g
same,kidney size vs vehicle-treated BPK mice (FIG. 4),"[3]; BPK mice, 10 mg/kg/day i.p.",dramatically smaller
same,reduction in body weight vs vehicle,"[3]; BPK mice, 10 mg/kg/day i.p.",not statistically significant
same,reduction of KW/BW ratio vs vehicle,"[3]; BPK mice, 10 mg/kg/day i.p.",53%
same,reduction of kidney size vs vehicle,"[3]; BPK mice, 10 mg/kg/day i.p.",56%
same,size and number of renal cysts (histology),"[3]; BPK mice, 10 mg/kg/day, day 21 kidneys, 10 mg/kg/day",marked reductions in the size and number of renal cysts; also recorded: dramatic reduction in the DBA-labeled collecting tubule cysts
same,collecting tubule cystic index (CI),"[3]; BPK mice, 10 mg/kg/day, untreated 4.7+/−0.6",1.93+/−0.2
